Where a name gives a salt, the structure may show the parent alone.
Legend:
Type in all cases: biochemical
[1] = target: T1, human LSD1(171-852) (Homo sapiens, UniProt O60341); assay: Measurement of LSD1 inhibitory activity (time-resolved fluorescence, biotin-histone H3 mono methylated K4 peptide); conditions: read-out: LSD1 IC50 value
T1 construct: to give hLSD1(171-852) purified product; made in house; host or cells: Escherichia coli C43(DE3) pLysS

[2] = target: T2, MAO-A (Homo sapiens, UniProt P21397); assay: Measurement of MAO-A inhibitory activity (MAO-Glo Assay)
T2 construct: purchased Sigma-Aldrich Co. LLC
T2 sequence (P21397 1-527): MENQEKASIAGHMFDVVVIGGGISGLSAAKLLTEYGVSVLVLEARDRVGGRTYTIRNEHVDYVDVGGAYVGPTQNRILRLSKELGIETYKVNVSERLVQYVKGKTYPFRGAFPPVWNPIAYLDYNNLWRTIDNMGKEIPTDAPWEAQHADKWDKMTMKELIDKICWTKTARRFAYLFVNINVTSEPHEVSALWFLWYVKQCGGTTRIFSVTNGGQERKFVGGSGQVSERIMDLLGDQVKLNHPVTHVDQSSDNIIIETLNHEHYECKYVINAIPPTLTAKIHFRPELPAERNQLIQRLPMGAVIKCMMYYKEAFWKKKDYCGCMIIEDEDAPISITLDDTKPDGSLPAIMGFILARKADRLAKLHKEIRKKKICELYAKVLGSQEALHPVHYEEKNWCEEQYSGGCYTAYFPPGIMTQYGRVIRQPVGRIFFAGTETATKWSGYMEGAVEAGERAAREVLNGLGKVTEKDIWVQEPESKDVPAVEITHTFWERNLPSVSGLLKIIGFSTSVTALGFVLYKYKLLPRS
Summary of the method: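 MAO-A (400 ng) was pre-incubated with compound 10 min at room temperature in 100 mM HEPES pH 7.5, 5% glycerol, then MAO substrate (160 μM stock) added for 60 min. Luciferin detection reagent, 20 min, luminescence; % inhibition against no-compound control minus no-enzyme blank.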

[3] = target: T3, MAO-B (Homo sapiens, UniProt P27338); assay: Measurement of MAO-B inhibitory activity (MAO-Glo Assay)
T3 construct: purchased Sigma-Aldrich Co. LLC
T3 sequence (P27338 1-520): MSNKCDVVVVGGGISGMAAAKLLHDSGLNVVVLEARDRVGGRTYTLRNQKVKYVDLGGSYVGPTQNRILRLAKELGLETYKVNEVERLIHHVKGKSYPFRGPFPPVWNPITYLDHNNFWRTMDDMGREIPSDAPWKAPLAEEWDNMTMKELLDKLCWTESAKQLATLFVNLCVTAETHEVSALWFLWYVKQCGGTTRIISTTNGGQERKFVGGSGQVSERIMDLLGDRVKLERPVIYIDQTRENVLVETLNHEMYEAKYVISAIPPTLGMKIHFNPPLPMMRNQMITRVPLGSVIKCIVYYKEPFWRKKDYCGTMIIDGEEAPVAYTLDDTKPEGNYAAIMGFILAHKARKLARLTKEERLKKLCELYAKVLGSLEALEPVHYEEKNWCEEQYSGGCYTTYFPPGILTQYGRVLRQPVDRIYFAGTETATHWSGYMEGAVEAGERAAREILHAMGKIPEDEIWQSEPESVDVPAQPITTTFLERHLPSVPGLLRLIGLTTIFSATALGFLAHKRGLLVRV
Summary of the method: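 Percent inhibition was calculated from luciferin-based luminescence, corrected with a blank lacking enzyme and a control lacking compound. The reaction ran 60 min at room temperature after adding MAO substrate (16 µM as added). This followed a 10 min compound–enzyme preincubation in HEPES pH 7.5 buffer.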

Compound	IC50 [1]	IC50 [2]	IC50 [3]
O=C(Nc1ccc([C@@H]2C[C@H]2NCc2ccc(Cl)c(Cl)c2)cc1)c1ccc(-c2ccccc2)cc1 (relative stereo) [Example 53, N-(4-{trans-2-[(3,4-dichloro-benzyl)amino]-cyclopropyl}phenyl)-biphenyl-4-carboxamide]	0.23 µM	4 µM	3.4 µM
COc1ccc(CN[C@@H]2C[C@H]2c2ccc(NC(=O)c3ccc(-c4ccccc4)cc3)cc2)cn1 (relative stereo) [Example 54]	< 0.1 µM	0.85 µM	1.5 µM
C=CCOC(=O)N1CCC(N[C@@H]2C[C@H]2c2ccc(NC(=O)c3ccc(-c4ccccc4)cc3)cc2)CC1 (relative stereo) [Example 55, allyl 4-{[trans-2-{4-[(biphenyl-4-yl-carbonyl)amino]-phenyl}cyclo-propyl]amino}-piperidine-1-carboxylate]	0.13 µM	> 10 µM	> 10 µM
CC(COc1ccccc1)N[C@@H]1C[C@H]1c1ccc(NC(=O)c2ccc(-c3ccccc3)cc2)cc1 (relative stereo) [Example 56, N-(4-{trans-2-[(1-methyl-2-phenoxyethyl)-amino]cyclo-propyl}phenyl)-biphenyl-4-carboxamide]	0.26 µM	> 10 µM	> 10 µM
O=C(Nc1ccc([C@@H]2C[C@H]2N(CC2CC2)CC2CC2)cc1)c1ccc(-c2ccccc2)cc1 (relative stereo) [Example 60, N-(4-{trans-2-[bis(cyclopropylmethyl)amino]cyclopropyl}phenyl)biphenyl-4-carboxamide hydrochloride]	1.9 µM	> 10 µM	> 10 µM
O=C(Nc1ccc([C@@H]2C[C@H]2NC2CCOCC2)cc1)c1ccc(-c2ccccc2)cc1 (relative stereo) [Example 61, N-{4-[trans-2-(tetrahydro-2H-pyran-4-ylamino)cyclopropyl]phenyl}biphenyl-4-carboxamide hydrochloride]	< 0.1 µM	2.2 µM	3.3 µM
CC(=O)N1CCC(N[C@@H]2C[C@H]2c2ccc(NC(=O)c3ccc(-c4ccccc4)cc3)cc2)CC1 (relative stereo) [Example 62, N-(4-{trans-2-[(1-acetylpiperidin-4-yl)amino]cyclopropyl}phenyl)biphenyl-4-carboxamide hydrochloride]	< 0.1 µM	> 10 µM	> 10 µM
O=C(Nc1ccc([C@@H]2C[C@H]2NC2CCN(CC(F)(F)F)CC2)cc1)c1ccc(-c2ccccc2)cc1 (relative stereo) [Example 63, N-{4-[trans-2-{[1-(2,2,2-trifluoroethyl)piperidin-4-yl]amino}cyclopropyl]phenyl}biphenyl-4-carboxamide hydrochloride]	< 0.1 µM	> 10 µM	> 10 µM
CN(C(=O)c1ccc(-c2ccccc2)cc1)c1ccc([C@@H]2C[C@H]2NCC2CC2)cc1 (relative stereo) [Example 64, N-(4-{trans-2-[(cyclopropylmethyl)amino]cyclopropyl}phenyl)-N-methylbiphenyl-4-carboxamide hydrochloride]	0.2 µM	8.5 µM	> 10 µM
O=C(Nc1ccc([C@@H]2C[C@H]2NCC2CC2)cc1)c1cccc(C(F)(F)F)c1 (relative stereo) [Example 65, N-(4-{trans-2-[(cyclopropylmethyl)amino]cyclopropyl}phenyl)-3-(trifluoromethyl)benzamide hydrochloride]	< 0.1 µM	8.6 µM	9.6 µM
O=C(Nc1ccc([C@@H]2C[C@H]2NCc2c[nH]cn2)cc1)c1ccc(-c2ccccc2)cc1 (relative stereo) [Example 66, N-(4-{trans-2-[(1H-imidazol-4-ylmethyl)amino]cyclopropyl}phenyl)biphenyl-4-carboxamide dihydrochloride]	< 0.1 µM	> 10 µM	> 10 µM
O=C(Nc1ccc([C@@H]2C[C@H]2NCc2ccccc2F)cc1)c1cccc(C(F)(F)F)c1 (relative stereo) [Example 67, N-(4-{trans-2-[(2-fluorobenzyl)amino]cyclopropyl}phenyl)-3-(trifluoromethyl)benzamide hydrochloride]	< 0.1 µM	> 10 µM	> 10 µM
Cc1ccc(C(=O)Nc2ccc([C@@H]3C[C@H]3NCC3CC3)cc2)cc1 (relative stereo) [Example 68, N-(4-{trans-2-[(cyclopropylmethyl)amino]cyclopropyl}phenyl)-4-methylbenzamide hydrochloride]	< 0.1 µM	> 10 µM	> 10 µM
O=C(Nc1ccc([C@@H]2C[C@H]2NCC2CC2)cc1)c1ccc(C(F)(F)F)cc1 (relative stereo) [Example 69, N-(4-{trans-2-[(cyclopropylmethyl)amino]cyclopropyl}phenyl)-4-(trifluoromethyl)benzamide hydrochloride]	< 0.1 µM	> 10 µM	> 10 µM
CC(C)(C)c1ccc(C(=O)Nc2ccc([C@@H]3C[C@H]3NCC3CC3)cc2)cc1 (relative stereo) [Example 70, 4-tert-butyl-N-(4-{trans-2-[(cyclopropylmethyl)amino]cyclopropyl}phenyl)benzamide hydrochloride]	< 0.1 µM	> 10 µM	> 10 µM
O=C(Nc1ccc([C@@H]2C[C@H]2NCC2CC2)cc1)c1ccc(OCc2ccccc2)cc1 (relative stereo) [Example 71, 4-(benzyloxy)-N-(4-{trans-2-[(cyclopropylmethyl)amino]cyclopropyl}phenyl)benzamide hydrochloride]	< 0.1 µM	> 10 µM	> 10 µM
O=C(Nc1ccc([C@@H]2C[C@H]2NCc2cscn2)cc1)c1cccc(C(F)(F)F)c1 (relative stereo) [Example 72, N-(4-{trans-2-[(1,3-thiazol-4-ylmethyl)amino]cyclopropyl}phenyl)-3-(trifluoromethyl)benzamide dihydrochloride]	< 0.1 µM	3.1 µM	> 10 µM
O=C(Nc1ccc([C@@H]2C[C@H]2NC2CCN(Cc3ccccc3)CC2)cc1)c1cccc(C(F)(F)F)c1 (relative stereo) [Example 74, N-(4-{trans-2-[(1-benzylpiperidin-4-yl)amino]cyclopropyl}phenyl)-3-(trifluoromethyl)benzamide dihydrochloride]	< 0.1 µM	> 10 µM	> 10 µM
O=C(Nc1ccc([C@@H]2C[C@H]2NC2CCN(c3ccccc3)CC2)cc1)c1cccc(C(F)(F)F)c1 (relative stereo) [Example 75, N-(4-{trans-2-[(1-phenylpiperidin-4-yl)amino]cyclopropyl}phenyl)-3-(trifluoromethyl)benzamide dihydrochloride]	< 0.1 µM	> 10 µM	> 10 µM
O=C(Nc1ccc([C@@H]2C[C@H]2NC2CCNC(c3ccccc3)C2)cc1)c1cccc(C(F)(F)F)c1 (relative stereo) [Example 77, N-(4-{trans-2-[(2-phenylpiperidin-4-yl)amino]cyclopropyl}phenyl)-3-(trifluoromethyl)benzamide dihydrochloride]	< 0.1 µM	9.9 µM	> 10 µM
O=C(Nc1ccc([C@@H]2C[C@H]2NCC2CC2)cc1)c1ccc(-c2ccccc2Cl)cc1 (relative stereo) [Example 78, 2′-chloro-N-(4-{trans-2-[(cyclopropylmethyl)amino]cyclopropyl}phenyl)biphenyl-4-carboxamide hydrochloride]	< 0.1 µM	> 10 µM	> 10 µM
O=C(Nc1ccc(C(=O)Nc2ccc([C@@H]3C[C@H]3NCC3CC3)cc2)cc1)c1ccccc1 (relative stereo) [Example 80, N-(4-{trans-2-[(cyclopropylmethyl)amino]cyclopropyl}phenyl)-4-[(phenylcarbonyl)amino]benzamide hydrochloride]	< 0.1 µM	> 10 µM	> 10 µM

From patent US9682925B2, “Cyclopropaneamine compound” (TAKEDA PHARMACEUTICAL COMPANY LIMITED, priority 2011, dated 2017)
